Consider 20 molecules from patent US9714234B2, “Carbazole carboxamide compounds” (Bristol-Myers Squibb Company, priority 2013, dated 2017).

Assay [1] deals with CD69 expression on B cells in human whole blood. The assay is described as follows: Whole Blood Assays of BCR-Stimulated CD69 Expression on B Cells. The format is cell-based. The following applies: anti-human IgM + IL-4 stimulation, 18 h at 37° C.
For the next assay, the target named is Jak2 tyrosine kinase (Homo sapiens (Human), UniProt O60674). Nature of the assay: Jak2 Tyrosine Kinase Assay. The following applies: for IC50: Jak2 1 nM, ATP 30 μM; for Ratio of Jak2/Btk IC50 values: selectivity for Btk over Jak2, larger value = more selective for Btk. It is filed as biochemical.
Sequence of Jak2 tyrosine kinase (O60674 whole entry): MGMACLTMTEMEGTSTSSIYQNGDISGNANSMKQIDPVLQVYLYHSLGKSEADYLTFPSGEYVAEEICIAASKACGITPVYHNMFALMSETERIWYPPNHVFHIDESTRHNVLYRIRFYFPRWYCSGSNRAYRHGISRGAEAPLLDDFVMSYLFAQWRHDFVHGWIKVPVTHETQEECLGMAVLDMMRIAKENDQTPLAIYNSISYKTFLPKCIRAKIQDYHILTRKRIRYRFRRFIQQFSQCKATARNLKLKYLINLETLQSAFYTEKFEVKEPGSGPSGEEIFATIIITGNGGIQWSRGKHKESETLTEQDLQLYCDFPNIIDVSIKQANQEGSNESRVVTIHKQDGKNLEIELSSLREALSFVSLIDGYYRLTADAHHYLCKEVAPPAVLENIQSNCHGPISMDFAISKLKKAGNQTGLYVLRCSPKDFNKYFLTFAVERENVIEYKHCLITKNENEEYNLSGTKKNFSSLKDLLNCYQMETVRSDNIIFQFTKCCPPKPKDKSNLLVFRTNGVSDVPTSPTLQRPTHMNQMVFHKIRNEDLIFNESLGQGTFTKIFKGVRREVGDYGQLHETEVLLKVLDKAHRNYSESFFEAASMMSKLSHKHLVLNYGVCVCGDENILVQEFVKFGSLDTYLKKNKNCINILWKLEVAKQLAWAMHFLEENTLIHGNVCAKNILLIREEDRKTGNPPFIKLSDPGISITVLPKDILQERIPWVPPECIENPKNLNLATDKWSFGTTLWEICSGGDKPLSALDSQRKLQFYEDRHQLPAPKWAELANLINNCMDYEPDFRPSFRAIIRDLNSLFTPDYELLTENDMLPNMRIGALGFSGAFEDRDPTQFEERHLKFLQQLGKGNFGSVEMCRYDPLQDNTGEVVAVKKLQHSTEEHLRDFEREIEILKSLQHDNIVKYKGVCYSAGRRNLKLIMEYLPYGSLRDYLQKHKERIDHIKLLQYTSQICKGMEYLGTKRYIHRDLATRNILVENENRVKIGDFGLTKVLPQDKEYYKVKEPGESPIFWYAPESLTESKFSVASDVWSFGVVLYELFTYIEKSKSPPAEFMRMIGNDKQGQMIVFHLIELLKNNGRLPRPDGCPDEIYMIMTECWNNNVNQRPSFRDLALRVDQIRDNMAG
For another assay, the target named is human recombinant Btk (Homo sapiens (Human), UniProt Q06187). The assay is described as follows: Human Recombinant Btk Enzyme Assay. The format is biochemical. The following applies: human recombinant Btk 1 nM, ATP 20 μM.
Sequence of human recombinant Btk (Q06187 whole entry): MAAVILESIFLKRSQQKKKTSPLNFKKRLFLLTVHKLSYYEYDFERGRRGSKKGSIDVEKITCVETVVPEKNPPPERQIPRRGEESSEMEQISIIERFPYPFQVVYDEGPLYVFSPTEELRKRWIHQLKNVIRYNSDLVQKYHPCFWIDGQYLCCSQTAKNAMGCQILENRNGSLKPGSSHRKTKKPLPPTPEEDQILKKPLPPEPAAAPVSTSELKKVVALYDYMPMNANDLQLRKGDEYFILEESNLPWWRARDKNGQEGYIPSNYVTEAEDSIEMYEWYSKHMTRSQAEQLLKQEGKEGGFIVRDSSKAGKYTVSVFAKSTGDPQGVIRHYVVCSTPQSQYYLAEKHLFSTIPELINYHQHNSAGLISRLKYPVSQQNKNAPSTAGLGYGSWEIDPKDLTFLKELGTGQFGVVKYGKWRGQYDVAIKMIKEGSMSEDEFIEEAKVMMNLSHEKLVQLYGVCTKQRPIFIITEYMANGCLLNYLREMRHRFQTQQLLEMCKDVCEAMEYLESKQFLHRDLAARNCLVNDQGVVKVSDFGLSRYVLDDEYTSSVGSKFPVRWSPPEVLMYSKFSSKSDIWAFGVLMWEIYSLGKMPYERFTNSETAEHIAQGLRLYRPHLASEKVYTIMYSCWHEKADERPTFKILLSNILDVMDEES

A value given as a limit tells only on which side of the number the result lay.

The term IC50 denotes the concentration that gives 50% inhibition. On to “4-(3-(S)-(8-Fluoro-1-methyl-2,4-dioxo-1,2-dihydroquinazolin-3(4H)-yl)-2-methylphenyl)-7-(2-hydroxypropan-2-yl)-5-methyl-9H-carbazole-1-carboxamide [Example 24]”, for which the values for the IC50 (in assay [1]; at Jak2 tyrosine kinase; on human recombinant Btk) were 160 nM, over 2000 nM and 0.59 nM, respectively. In addition, the “Ratio of Jak2/Btk IC50 values” at Jak2 tyrosine kinase was over 3400.
`Cc1c(-c2ccc(C(N)=O)c3[nH]c4cc(C(C)(C)O)ccc4c23)cccc1-n1c(=O)c2cccc(F)c2n(C)c1=O` (atropisomer, axis not shown) [Example 3, 4-(3-(S)-(8-Fluoro-1-methyl-2,4-dioxo-1,2-dihydroquinazolin-3(4H)-yl)-2-methylphenyl)-7-(2-hydroxypropan-2-yl)-9H-carbazole-1-carboxamide]: the results for the IC50 (in assay [1]; against Jak2 tyrosine kinase) were 190 nM and 1200 nM, respectively.
The matching figures for `[2H]C([2H])([2H])n1c(=O)n(-c2cccc(-c3ccc(C(N)=O)c4[nH]c5cc(C(C)(C)O)ccc5c34)c2C)c(=O)c2cccc(F)c21` (atropisomer, axis not shown) [Example 4, 4-(3-(S)-(8-Fluoro-1-methyl(d3)-2,4-dioxo-1,2-dihydroquinazolin-3(4H)-yl)-2-methylphenyl)-7-(2-hydroxypropan-2-yl)-9H-carbazole-1-carboxamide]: 190 nM and 2000 nM.
For `Cc1c(-c2ccc(C(N)=O)c3[nH]c4cc(C(C)(C)O)ccc4c23)cccc1-n1c(=O)cc2c(Cl)cccn2c1=O` (atropisomer, axis not shown) [Example 15, 4-(3-(S)-(5-Chloro-1,3-dioxo-1H-pyrido[1,2-c]pyrimidin-2(3H)-yl)-2-methylphenyl)-7-(2-hydroxypropan-2-yl)-9H-carbazole-1-carboxamide], the IC50 in assay [1] was determined as 59 nM; against Jak2 tyrosine kinase, 1000 nM; at human recombinant Btk, 0.41 nM. On Jak2 tyrosine kinase, the “Ratio of Jak2/Btk IC50 values” is listed as 2400.
In the case of `Cc1c(-c2ccc(C(N)=O)c3[nH]c4c(C)c(C(C)(C)O)ccc4c23)cccc1-n1c(=O)c2cccc(F)c2n(C)c1=O` (atropisomer, axis not shown) [Example 26, 4-(3-(S)-(8-Fluoro-1-methyl-2,4-dioxo-1,2-dihydroquinazolin-3(4H)-yl)-2-methylphenyl)-7-(2-hydroxypropan-2-yl)-8-methyl-9H-carbazole-1-carboxamide], the IC50 in assay [1] (B-cell) is 200 nM; against Jak2 tyrosine kinase it was over 2000 nM; on human recombinant Btk it was 0.84 nM. In addition, at Jak2 tyrosine kinase, the “Ratio of Jak2/Btk IC50 values” is reported as over 2400.
On the same counts, the results for `[2H]C([2H])([2H])n1c(=O)n(-c2cccc(-c3ccc(C(N)=O)c4[nH]c5cc(C(C)(C)O)cc(C)c5c34)c2C)c(=O)c2cccc(F)c21` (atropisomer, axis not shown) [Example 27, 4-(3-(S)-(8-Fluoro-1-methyl(d3)-2,4-dioxo-1,2-dihydroquinazolin-3(4H)-yl)-2-methylphenyl)-7-(2-hydroxypropan-2-yl)-5-methyl-9H-carbazole-1-carboxamide] are 98 nM, over 2000 nM, 1.2 nM and over 1700.
As to `Cc1c(-c2ccc(C(N)=O)c3[nH]c4cc(C(C)(C)O)ccc4c23)cccc1-n1c(=O)[nH]c2c(F)cccc2c1=O` (single isomer, unassigned) [Example 1, 4-(3-(8-Fluoro-2,4-dioxo-1,2-dihydroquinazolin-3(4H)-yl)-2-methylphenyl)-7-(2-hydroxypropan-2-yl)-9H-carbazole-1-carboxamide], the IC50 amounted to 140 nM in assay [1] (Homo sapiens, B-cell, 18 h); 1200 nM on Jak2 tyrosine kinase; 1.5 nM at human recombinant Btk. Further, the “Ratio of Jak2/Btk IC50 values” at Jak2 tyrosine kinase stood at 800.
Take `Cc1c(-c2ccc(C(N)=O)c3[nH]c4cc(C(C)(C)O)ccc4c23)cccc1-n1c(=O)[nH]c2c(F)cccc2c1=O` (single isomer, unassigned) [Example 2, 4-(3-(8-Fluoro-2,4-dioxo-1,2-dihydroquinazolin-3(4H)-yl)-2-methylphenyl)-7-(2-hydroxypropan-2-yl)-9H-carbazole-1-carboxamide]: the IC50 turned out to be 200 nM in assay [1], 850 nM against Jak2 tyrosine kinase and 2.4 nM on human recombinant Btk. Also, at Jak2 tyrosine kinase, the “Ratio of Jak2/Btk IC50 values” was determined as 350.
Take `Cc1c(-c2ccc(C(N)=O)c3[nH]c4cc(C(C)(C)O)cc(C)c4c23)cccc1-n1c(=O)c2cccc(F)c2n(C)c1=O` (single isomer, unassigned) [Example 25]: the IC50 in assay [1] (B-cell) came to 69 nM; against Jak2 tyrosine kinase it was 4600 nM; at human recombinant Btk, 0.7 nM. Moreover, the “Ratio of Jak2/Btk IC50 values” at Jak2 tyrosine kinase worked out at 6600.
On the same counts, the results for `Cn1c(=O)n(-c2cccc(-c3ccc(C(N)=O)c4[nH]c5cc(C(C)(C)O)ccc5c34)c2Cl)c(=O)c2cccc(F)c21` [Example 5, 4-(2-Chloro-3-(8-fluoro-1-methyl-2,4-dioxo-1,2-dihydroquinazolin-3(4H)-yl)phenyl)-7-(2-hydroxypropan-2-yl)-9H-carbazole-1-carboxamide] are 180 nM, 1200 nM, 0.9 nM and 1300.
On the same counts, the results for `Cn1c(=O)n(-c2cccc(-c3ccc(C(N)=O)c4[nH]c5cc(C(C)(C)O)ccc5c34)c2Cl)c(=O)c2ccccc21` [Example 6, 4-(2-Chloro-3-(1-methyl-2,4-dioxo-1,2-dihydroquinazolin-3(4H)-yl)phenyl)-7-(2-hydroxypropan-2-yl)-9H-carbazole-1-carboxamide] are 150 nM, 1800 nM, 5.3 nM and 340.
In the case of `COc1cccc2c(=O)n(-c3cccc(-c4ccc(C(N)=O)c5[nH]c6cc(C(C)(C)O)ccc6c45)c3C)c(=O)n(C)c12` [Example 7, 7-(2-Hydroxypropan-2-yl)-4-(3-(8-methoxy-1-methyl-2,4-dioxo-1,2-dihydroquinazolin-3(4H)-yl)-2-methylphenyl)-9H-carbazole-1-carboxamide], the IC50 in assay [1] (B-cell) came to 220 nM; on Jak2 tyrosine kinase, 1300 nM; on human recombinant Btk it was 1.7 nM. Moreover, the “Ratio of Jak2/Btk IC50 values” on Jak2 tyrosine kinase is reported as 760.
The matching figures for `Cc1c(-c2ccc(C(N)=O)c3[nH]c4cc(C(C)(C)O)ccc4c23)cccc1-n1c(=O)c2cc(F)ccc2n(C)c1=O` [Example 8, 4-(3-(6-Fluoro-1-methyl-2,4-dioxo-1,2-dihydroquinazolin-3(4H)-yl)-2-methylphenyl)-7-(2-hydroxypropan-2-yl)-9H-carbazole-1-carboxamide]: 160 nM, 2200 nM, 5.8 nM and 380.
For `Cc1c(-c2ccc(C(N)=O)c3[nH]c4cc(C(C)(C)O)ccc4c23)cccc1-n1c(=O)ccn(-c2ccc(F)cc2)c1=O` [Example 9, 4-(3-(3-(4-Fluorophenyl)-2,6-dioxo-2,3-dihydropyrimidin-1(6H)-yl)-2-methylphenyl)-7-(2-hydroxypropan-2-yl)-9H-carbazole-1-carboxamide], the IC50 in assay [1] (B-cell) was 210 nM; against Jak2 tyrosine kinase, 1000 nM; on human recombinant Btk, 2.2 nM. The “Ratio of Jak2/Btk IC50 values” at Jak2 tyrosine kinase was 450.
Regarding `COc1ccc2cc(=O)n(-c3cccc(-c4ccc(C(N)=O)c5[nH]c6cc(C(C)(C)O)ccc6c45)c3C)c(=O)n2c1` [Example 10, 7-(2-Hydroxypropan-2-yl)-4-(3-(7-methoxy-1,3-dioxo-1H-pyrido[1,2-c]pyrimidin-2(3H)-yl)-2-methylphenyl)-9H-carbazole-1-carboxamide], the IC50 was 120 nM in assay [1] (B-cell), 1100 nM on Jak2 tyrosine kinase and 1.4 nM at human recombinant Btk. For the same molecule, the “Ratio of Jak2/Btk IC50 values” on Jak2 tyrosine kinase is 790.
`COc1ccn2c(=O)n(-c3cccc(-c4ccc(C(N)=O)c5[nH]c6cc(C(C)(C)O)ccc6c45)c3C)c(=O)cc2c1` [Example 11, 7-(2-Hydroxypropan-2-yl)-4-(3-(6-methoxy-1,3-dioxo-1H-pyrido[1,2-c]pyrimidin-2(3H)-yl)-2-methylphenyl)-9H-carbazole-1-carboxamide]: the results for the IC50 (in assay [1] (B-cell); against Jak2 tyrosine kinase; on human recombinant Btk) were 140 nM, 1000 nM and 0.63 nM, respectively. Also, on Jak2 tyrosine kinase, the “Ratio of Jak2/Btk IC50 values” was found to be 1600.
`Cc1c(-c2ccc(C(N)=O)c3[nH]c4cc(C(C)(C)O)ccc4c23)cccc1-n1c(=O)cc2c(Cl)cccn2c1=O` [Example 14, 4-(3-(R)-(5-Chloro-1,3-dioxo-1H-pyrido[1,2-c]pyrimidin-2(3H)-yl)-2-methylphenyl)-7-(2-hydroxypropan-2-yl)-9H-carbazole-1-carboxamide]: the IC50 in assay [1] turned out to be 78 nM.
As to `Cc1c(-c2ccc(C(N)=O)c3[nH]c4cc(N(C)C)ccc4c23)cccc1-n1c(=O)cc2c(F)cccn2c1=O` [Example 29, 7-(dimethylamino)-4-(3-(5-fluoro-1,3-dioxo-1H-pyrido[1,2-c]pyrimidin-2(3H)-yl)-2-methylphenyl)-9H-carbazole-1-carboxamide], the IC50 in assay [1] (B-cell) was 56 nM.
Still for that read-out and setting: for `Cc1c(-c2ccc(C(N)=O)c3[nH]c4cc(CN5CCCC5)ccc4c23)cccc1-n1c(=O)cc2c(Cl)cccn2c1=O` [Example 31, 4-(3-(5-chloro-1,3-dioxo-1H-pyrido[1,2-c]pyrimidin-2(3H)-yl)-2-methylphenyl)-7-(pyrrolidin-1-ylmethyl)-9H-carbazole-1-carboxamide] the value was 60 nM.
Regarding `Cc1nc(C(N)=O)c2[nH]c3cc(C(C)(C)O)ccc3c2c1-c1cccc(-n2cnc3ccccc3c2=O)c1C` [compound 35, 7-(2-Hydroxypropan-2-yl)-3-methyl-4-(2-methyl-3-(4-oxoquinazolin-3(4H)-yl)phenyl)-9H-pyrido[3,4-b]indole-1-carboxamide, reference compound], the “Ratio of Jak2/Btk IC50 values” on Jak2 tyrosine kinase is recorded as 29.
